What was measured:
[1] = target: Acetylcholinesterase (Electrophorus electricus, UniProt O42275); experiment: Inhibition of electric eel AChE using acetylthiocholine iodide as substrate preincubated for 10 mins prior to substrate addition by Ellman's method
[2] = target: Cholinesterase (Equus caballus, UniProt P81908); experiment: Inhibition of equine serum BChE using butylthiocholine iodide as substrate preincubated for 10 mins prior to substrate addition by Ellman's method
[3] = Selectivity ratio of IC50 for equine serum BChE to IC50 for electric eel AChE
[4] = Antioxidant activity assessed as Fe2+ formation by FRAP assay; assay type: functional

Sequence of Acetylcholinesterase (O42275 whole entry): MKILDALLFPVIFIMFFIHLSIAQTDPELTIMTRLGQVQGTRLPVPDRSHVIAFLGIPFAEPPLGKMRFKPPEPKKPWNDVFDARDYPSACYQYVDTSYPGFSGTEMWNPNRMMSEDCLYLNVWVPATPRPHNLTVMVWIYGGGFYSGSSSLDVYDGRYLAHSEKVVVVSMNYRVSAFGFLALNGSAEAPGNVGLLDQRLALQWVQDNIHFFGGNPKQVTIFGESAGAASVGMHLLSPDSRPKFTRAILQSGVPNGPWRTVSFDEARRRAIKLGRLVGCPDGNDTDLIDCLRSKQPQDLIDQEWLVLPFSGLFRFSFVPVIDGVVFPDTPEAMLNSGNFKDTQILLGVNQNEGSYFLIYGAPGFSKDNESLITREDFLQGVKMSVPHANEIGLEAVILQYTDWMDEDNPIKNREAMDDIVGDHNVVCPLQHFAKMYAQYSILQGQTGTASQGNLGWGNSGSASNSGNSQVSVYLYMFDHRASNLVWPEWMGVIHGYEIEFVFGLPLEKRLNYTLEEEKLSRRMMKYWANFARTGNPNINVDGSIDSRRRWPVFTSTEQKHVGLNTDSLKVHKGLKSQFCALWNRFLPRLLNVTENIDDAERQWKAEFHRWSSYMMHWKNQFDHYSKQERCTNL
Sequence of Cholinesterase (P81908 whole entry): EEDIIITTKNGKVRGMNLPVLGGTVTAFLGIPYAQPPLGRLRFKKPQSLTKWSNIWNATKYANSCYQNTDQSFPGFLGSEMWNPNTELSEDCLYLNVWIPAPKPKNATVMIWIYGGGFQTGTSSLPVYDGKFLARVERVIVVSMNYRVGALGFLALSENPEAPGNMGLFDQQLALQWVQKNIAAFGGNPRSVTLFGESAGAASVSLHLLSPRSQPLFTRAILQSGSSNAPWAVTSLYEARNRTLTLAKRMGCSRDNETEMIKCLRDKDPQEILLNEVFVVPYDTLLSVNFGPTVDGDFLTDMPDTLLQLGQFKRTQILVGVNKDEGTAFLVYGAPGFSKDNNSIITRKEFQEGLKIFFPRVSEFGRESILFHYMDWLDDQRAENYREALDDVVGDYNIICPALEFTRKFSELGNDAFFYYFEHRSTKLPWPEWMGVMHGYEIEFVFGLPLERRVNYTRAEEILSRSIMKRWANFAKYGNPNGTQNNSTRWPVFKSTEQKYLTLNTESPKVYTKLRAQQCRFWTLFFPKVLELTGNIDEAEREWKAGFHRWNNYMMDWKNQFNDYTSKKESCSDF

Compound | IC50 [1] [µM] | IC50 [2] [µM] | Ratio IC50 [3] | Activity [4] [mmol/g]
O=C(COc1cc(=O)oc2ccccc12)NC1CCN(Cc2ccccc2)CC1 | 1.2 | 45 | 37 | 
O=C(COc1cc(=O)oc2ccccc12)N1CCC(O)(c2ccc(Br)cc2)CC1 | > 100 | > 100 |  | 
O=C(CCCOc1cc(=O)oc2ccccc12)N1CCC(Cc2ccccc2)CC1 | 8 | 76 |  | 
O=C(COc1cc(=O)oc2ccccc12)N1CCC(O)(c2ccc(Cl)cc2)CC1 | > 100 | > 100 |  | 
O=C(CCCOc1cc(=O)oc2ccccc12)N1CCN(c2ccc(F)cc2)CC1 | > 100 | > 100 |  | 
O=C(COc1cc(=O)oc2ccccc12)N1CCN(c2ccccc2O)CC1 | 21.2 | > 100 |  | 840
O=C1O[C@H]([C@@H](O)CO)C(O)=C1O |  |  |  | 2250
O=C(CCCOc1cc(=O)oc2ccccc12)NC1CCN(Cc2ccccc2)CC1 | 2.37 | 41 |  | 
O=C(COc1cc(=O)oc2ccccc12)N1CCN(c2ccccc2F)CC1 | 12.1 | > 100 |  | 
O=C(COc1cc(=O)oc2ccccc12)N1CCN(c2ccc(Cl)c(Cl)c2)CC1 | 2.3 | 89 | 34 | 
O=C(CCCOc1cc(=O)oc2ccccc12)N1CCN(c2ccccc2O)CC1 | > 100 | > 100 |  | 770
O=C(CCCOc1cc(=O)oc2ccccc12)N1CCC(O)(c2ccc(Br)cc2)CC1 | > 100 | > 100 |  | 
COc1ccc(CCNC(=O)CCCOc2cc(=O)oc3ccccc23)cc1OC | > 100 | > 100 |  | 
O=C(CCCOc1cc(=O)oc2ccccc12)N1CCN(c2ccccc2F)CC1 | > 100 | > 100 |  | 
O=C(COc1cc(=O)oc2ccccc12)N1CCN(c2ccc(F)cc2)CC1 | 2.1 | 76 | 34 | 
O=C(CCCOc1cc(=O)oc2ccccc12)N1CCN(c2ccc(Cl)c(Cl)c2)CC1 | > 100 | > 100 |  | 
O=C(CCCOc1cc(=O)oc2ccccc12)N1CCC(O)(c2ccc(Cl)cc2)CC1 | > 100 | > 100 |  | 
O=C(CCCOc1cc(=O)oc2ccccc12)N1CCN(c2ccccc2)CC1 | > 100 | > 100 |  | 
O=C(COc1cc(=O)oc2ccccc12)N1CCC(Cc2ccccc2)CC1 | 3.4 | 65 |  | 
O=C(COc1cc(=O)oc2ccccc12)N1CCN(c2ccccc2)CC1 | 2.9 | > 100 | 34 | 

From ChEMBL document CHEMBL2390863, “Synthesis and evaluation of 4-substituted coumarins as novel acetylcholinesterase inhibitors” (Eur J Med Chem, 2013)
